The values that follow come from PMC5218480 (PLoS ONE, 2017).

This test deals with MV-4-11 cells. As to the kind of experiment: Gene expression microarray analysis (Affymetrix PrimeView) and GSEA. The class given is cell-based, human. Further details: RFU PODN (11730768_x_at) / Fold change /veh PODN (11730768_x_at) / RFU LINC00158 (11744669_a_at) / Fold change /veh LINC00158 (11744669_a_at) / RFU DUSP10 (11751237_a_at) / Fold change /veh DUSP10 (11751237_a_at) / RFU ID3 (11757404_x_at) / Fold change /veh ID3 (11757404_x_at) / RFU PLEKHG5 (11737974_s_at) / Fold change /veh PLEKHG5 (11737974_s_at) / RFU LRRC4B (11730491_at) / Fold change /veh LRRC4B (11730491_at) / RFU GIMAP4 (11747438_a_at) / Fold change /veh GIMAP4 (11747438_a_at) / RFU KRT8 (11758183_x_at) / Fold change /veh KRT8 (11758183_x_at) / RFU CNN1 (11734310_a_at) / Fold change /veh CNN1 (11734310_a_at) / RFU VPS37D (11726825_at) / Fold change /veh VPS37D (11726825_at) / RFU C10orf10 (11716522_x_at) / Fold change /veh C10orf10 (11716522_x_at) / RFU KIR2DL2 /// KIR2DL4 /// KIR2DL5A /// KIR2DL5B /// KIR2DS1 /// KIR2DS2 /// KIR2DS3 /// KIR2DS4 /// KIR3DL3 /// KIR3DL3 /// KIR3DS1 (11738374_at) / Fold change /veh KIR2DL2 /// KIR2DL4 /// KIR2DL5A /// KIR2DL5B /// KIR2DS1 /// KIR2DS2 /// KIR2DS3 /// KIR2DS4 /// KIR3DL3 /// KIR3DL3 /// KIR3DS1 (11738374_at) / RFU C1QL1 (11718748_at) / Fold change /veh C1QL1 (11718748_at) / RFU TMPRSS4 (11747572_a_at) / Fold change /veh TMPRSS4 (11747572_a_at) / RFU HAMP (11756126_x_at) / Fold change /veh HAMP (11756126_x_at) / RFU RNFT2 (11725882_a_at) / Fold change /veh RNFT2 (11725882_a_at) / RFU NR4A2 (11747474_a_at) / Fold change /veh NR4A2 (11747474_a_at) / RFU ABCC12 (11746883_a_at) / Fold change /veh ABCC12 (11746883_a_at) / RFU TMEM136 (11760407_x_at) / Fold change /veh TMEM136 (11760407_x_at) / RFU CLDN22 /// WWC2 (11732394_at) / Fold change /veh CLDN22 /// WWC2 (11732394_at) / RFU HLA-DPB1 (11760878_x_at) / Fold change /veh HLA-DPB1 (11760878_x_at) / RFU SPINT1 (11716480_a_at) / Fold change /veh SPINT1 (11716480_a_at) / RFU GAP43 (11754022_s_at) / Fold change /veh GAP43 (11754022_s_at) / RFU A4GNT (11735810_at) / Fold change /veh A4GNT (11735810_at) / RFU PRB3 (11715151_x_at) / Fold change /veh PRB3 (11715151_x_at) / RFU TUBB4B (11761932_at) / Fold change /veh TUBB4B (11761932_at) / RFU CAPN14 (11732068_a_at) / Fold change /veh CAPN14 (11732068_a_at) / RFU TMCC2 (11721928_a_at) / Fold change /veh TMCC2 (11721928_a_at) / RFU IRGQ (11745062_a_at) / Fold change /veh IRGQ (11745062_a_at) / RFU FAM174B (11720279_a_at) / Fold change /veh FAM174B (11720279_a_at) / RFU TMPRSS4 (11748680_a_at) / Fold change /veh TMPRSS4 (11748680_a_at) / RFU FAM212B (11763350_a_at) / Fold change /veh FAM212B (11763350_a_at) / RFU PLEKHG5 (11743358_a_at) / Fold change /veh PLEKHG5 (11743358_a_at) / RFU ZSCAN30 (11745921_a_at) / Fold change /veh ZSCAN30 (11745921_a_at) / RFU CMKLR1 (11741424_a_at) / Fold change /veh CMKLR1 (11741424_a_at) / RFU LOC101060620 /// MAPK8IP1 (11723275_at) / Fold change /veh LOC101060620 /// MAPK8IP1 (11723275_at) / RFU SPTSSB (11747773_x_at) / Fold change /veh SPTSSB (11747773_x_at) / RFU PRSS12 (11739890_at) / Fold change /veh PRSS12 (11739890_at) / RFU BIN1 (11741810_x_at) / Fold change /veh BIN1 (11741810_x_at) / RFU WNT11 (11732464_a_at) / Fold change /veh WNT11 (11732464_a_at) / RFU C10orf10 (11716521_a_at) / Fold change /veh C10orf10 (11716521_a_at) / RFU C5orf56 (11738089_at) / Fold change /veh C5orf56 (11738089_at) / RFU CYB561 (11721691_x_at) / Fold change /veh CYB561 (11721691_x_at) / RFU ANKRD19P (11752326_a_at) / Fold change /veh ANKRD19P (11752326_a_at) / RFU OR2T12 /// OR2T33 /// OR2T8 (11738714_s_at) / Fold change /veh OR2T12 /// OR2T33 /// OR2T8 (11738714_s_at) / RFU VCAN (11748164_a_at) / Fold change /veh VCAN (11748164_a_at) / RFU JSRP1 (11732532_at) / Fold change /veh JSRP1 (11732532_at) / RFU KRTAP10-11 (11738290_x_at) / Fold change /veh KRTAP10-11 (11738290_x_at) / RFU MYO3A (11730013_a_at) / Fold change /veh MYO3A (11730013_a_at) / RFU EBF3 (11725865_a_at) / Fold change /veh EBF3 (11725865_a_at) / RFU CAMK2N1 (11719241_x_at) / Fold change /veh CAMK2N1 (11719241_x_at) / RFU C5orf56 (11738088_a_at) / Fold change /veh C5orf56 (11738088_a_at) / RFU OLFML3 (11715873_a_at) / Fold change /veh OLFML3 (11715873_a_at) / RFU LOC100653217 /// NTM (11731650_a_at) / Fold change /veh LOC100653217 /// NTM (11731650_a_at) / RFU MAPK11 (11762145_a_at) / Fold change /veh MAPK11 (11762145_a_at) / RFU FIZ1 (11724087_x_at) / Fold change /veh FIZ1 (11724087_x_at) / RFU OASL (11726364_x_at) / Fold change /veh OASL (11726364_x_at) / RFU SOX15 (11748057_x_at) / Fold change /veh SOX15 (11748057_x_at) / RFU CD79A (11719716_a_at) / Fold change /veh CD79A (11719716_a_at) / RFU HIST1H1D (11736915_at) / Fold change /veh HIST1H1D (11736915_at) / RFU CASKIN2 (11723855_a_at) / Fold change /veh CASKIN2 (11723855_a_at) / RFU LOC730098 (11760151_x_at) / Fold change /veh LOC730098 (11760151_x_at) / RFU OR4N2 (11742367_at) / Fold change /veh OR4N2 (11742367_at) / RFU PRRT2 (11749266_a_at) / Fold change /veh PRRT2 (11749266_a_at) / RFU SNX32 (11753110_a_at) / Fold change /veh SNX32 (11753110_a_at) / RFU CDHR5 (11726645_a_at) / Fold change /veh CDHR5 (11726645_a_at) / RFU RCAN1 (11760418_a_at) / Fold change /veh RCAN1 (11760418_a_at) / RFU FAM167A (11723789_a_at) / Fold change /veh FAM167A (11723789_a_at) / RFU FAM26E (11764081_at) / Fold change /veh FAM26E (11764081_at) / RFU ISYNA1 (11749810_s_at) / Fold change /veh ISYNA1 (11749810_s_at) / RFU ACY1 (11761880_at) / Fold change /veh ACY1 (11761880_at) / RFU 11764098_at / Fold change /veh 11764098_at / RFU SAMD14 (11745864_x_at) / Fold change /veh SAMD14 (11745864_x_at) / RFU NPB (11741838_a_at) / Fold change /veh NPB (11741838_a_at) / RFU TMPRSS6 (11731388_a_at) / Fold change /veh TMPRSS6 (11731388_a_at) / RFU KRTAP10-2 (11738614_at) / Fold change /veh KRTAP10-2 (11738614_at) / RFU ARHGAP8 /// PRR5-ARHGAP8 (11727945_x_at) / Fold change /veh ARHGAP8 /// PRR5-ARHGAP8 (11727945_x_at) / RFU KRTAP5-7 /// NADSYN1 (11734609_at) / Fold change /veh KRTAP5-7 /// NADSYN1 (11734609_at) / RFU RASL12 (11751679_a_at) / Fold change /veh RASL12 (11751679_a_at) / RFU CDKN2B (11736163_a_at) / Fold change /veh CDKN2B (11736163_a_at) / RFU PRF1 (11729649_at) / Fold change /veh PRF1 (11729649_at) / RFU, ZNF638 /// ZNF638-IT1 / Fold change vs veh, ZNF638 /// ZNF638-IT1 / RFU, PANK3 / Fold change vs veh, PANK3 / RFU, SH3YL1 / Fold change vs veh, SH3YL1 / RFU, ZEB2 / Fold change vs veh, ZEB2 / RFU, NRIP1 / Fold change vs veh, NRIP1 / RFU, PTTG1IP / Fold change vs veh, PTTG1IP / RFU, CAPN2 / Fold change vs veh, CAPN2 / RFU, MED14 / Fold change vs veh, MED14 / RFU, SNORA58 / Fold change vs veh, SNORA58 / RFU, C1orf63 / Fold change vs veh, C1orf63 / RFU, LRRFIP1 / Fold change vs veh, LRRFIP1 / RFU, NDUFAF7 / Fold change vs veh, NDUFAF7 / RFU, SLC12A2 / Fold change vs veh, SLC12A2 / RFU, IBTK / Fold change vs veh, IBTK / RFU, ESF1 / Fold change vs veh, ESF1 / Fold change vs veh, TMEM50B / RFU, TAOK1 / Fold change vs veh, TAOK1 / RFU, ACBD3 / Fold change vs veh, ACBD3 / RFU, TMA16 / Fold change vs veh, TMA16 / RFU, RWDD3 / Fold change vs veh, RWDD3 / RFU, BCAT1 / Fold change vs veh, BCAT1 / RFU, EDEM3 / Fold change vs veh, EDEM3 / RFU, TMEM33 / Fold change vs veh, TMEM33 / RFU, WDR75 / Fold change vs veh, WDR75 / RFU, AHCTF1 / Fold change vs veh, AHCTF1 / RFU, TFRC / Fold change vs veh, TFRC / RFU, ZDHHC17 / Fold change vs veh, ZDHHC17 / RFU, NOM1 / Fold change vs veh, NOM1 / RFU, ARL8B / Fold change vs veh, ARL8B / RFU, ZBTB11 / Fold change vs veh, ZBTB11 / RFU, TAMM41 / Fold change vs veh, TAMM41 / RFU, KIAA1704 /// LOC100996395 / Fold change vs veh, KIAA1704 /// LOC100996395 / RFU, ING1 / Fold change vs veh, ING1 / RFU, TRMT61B / Fold change vs veh, TRMT61B / RFU, FUBP3 / Fold change vs veh, FUBP3 / RFU, TP53 / Fold change vs veh, TP53 / RFU, TNKS2 / Fold change vs veh, TNKS2 / RFU, ZFP14 / Fold change vs veh, ZFP14 / RFU, ACTR2 / Fold change vs veh, ACTR2 / RFU, PPP3R1 / Fold change vs veh, PPP3R1 / RFU, PIK3R1 / Fold change vs veh, PIK3R1 / RFU, HNRNPA1 / Fold change vs veh, HNRNPA1 / RFU, RNF170 / Fold change vs veh, RNF170 / RFU, ZNF28 / Fold change vs veh, ZNF28 / RFU, RNGTT / Fold change vs veh, RNGTT / RFU, OGT / Fold change vs veh, OGT / RFU, BRD1 / Fold change vs veh, BRD1 / RFU, MARS / Fold change vs veh, MARS / RFU, ZNF655 / Fold change vs veh, ZNF655 / RFU, FAHD1 / Fold change vs veh, FAHD1 / RFU, BDP1 / Fold change vs veh, BDP1 / RFU, LRRCC1 / Fold change vs veh, LRRCC1 / RFU, ARID1A / Fold change vs veh, ARID1A / RFU, ZNF146 / Fold change vs veh, ZNF146 / RFU, ZNF330 / Fold change vs veh, ZNF330 / RFU, GPN3 / Fold change vs veh, GPN3 / RFU, C9orf123 / Fold change vs veh, C9orf123 / RFU, N4BP2L2 / Fold change vs veh, N4BP2L2 / RFU, ARFIP1 / Fold change vs veh, ARFIP1 / RFU, FAM179B / Fold change vs veh, FAM179B / RFU, BCL10 / Fold change vs veh, BCL10 / RFU, UHRF1BP1L / Fold change vs veh, UHRF1BP1L / RFU, BET1 / Fold change vs veh, BET1 / RFU, CNOT2 / Fold change vs veh, CNOT2 / RFU, ZNF268 / Fold change vs veh, ZNF268 / Fold change vs veh, ZNF507 / RFU, DGCR2 / Fold change vs veh, DGCR2 / RFU, WDSUB1 / Fold change vs veh, WDSUB1 / Fold change vs veh, HSP90B1 /// MIR3652 / RFU, ADSS / Fold change vs veh, ADSS / RFU, GK / Fold change vs veh, GK / RFU, ZNF148 / Fold change vs veh, ZNF148 / RFU, TAF9 / Fold change vs veh, TAF9 / RFU, SLC1A5 / Fold change vs veh, SLC1A5 / RFU, SLMO2 / Fold change vs veh, SLMO2 / RFU, ABCC4 / Fold change vs veh, ABCC4 / RFU, LOC101060439 /// RAP1B / Fold change vs veh, LOC101060439 /// RAP1B / RFU, RFX7 / Fold change vs veh, RFX7 / RFU, GTPBP10 / Fold change vs veh, GTPBP10 / RFU, CNEP1R1 / Fold change vs veh, CNEP1R1 / RFU, BIVM-ERCC5 /// ERCC5 / Fold change vs veh, BIVM-ERCC5 /// ERCC5 / RFU, ILF3 / Fold change vs veh, ILF3 / RFU 11762660_at / Fold change /veh 11762660_at / RFU VCAN (11757783_s_at) / Fold change /veh VCAN (11757783_s_at) / RFU DDX43 (11728927_at) / Fold change /veh DDX43 (11728927_at) / RFU KRT8 (11758188_x_at) / Fold change /veh KRT8 (11758188_x_at) / RFU NKD1 (11759106_at) / Fold change /veh NKD1 (11759106_at) / RFU SRD5A1 (11742802_a_at) / Fold change /veh SRD5A1 (11742802_a_at) / RFU TPSAB1 /// TPSB2 (11721975_s_at) / Fold change /veh TPSAB1 /// TPSB2 (11721975_s_at) / RFU GSTM3 (11746129_a_at) / Fold change /veh GSTM3 (11746129_a_at) / RFU IL23R (11737362_x_at) / Fold change /veh IL23R (11737362_x_at) / RFU TMEM51 (11727254_a_at) / Fold change /veh TMEM51 (11727254_a_at) / RFU PIWIL2 (11732686_x_at) / Fold change /veh PIWIL2 (11732686_x_at) / RFU ORM1 (11744905_x_at) / Fold change /veh ORM1 (11744905_x_at) / RFU CCDC152 (11743942_at) / Fold change /veh CCDC152 (11743942_at) / RFU ECM1 (11717891_a_at) / Fold change /veh ECM1 (11717891_a_at) / RFU IL23R (11748794_a_at) / Fold change /veh IL23R (11748794_a_at) / RFU TNFAIP8L3 (11732012_x_at) / Fold change /veh TNFAIP8L3 (11732012_x_at) / RFU MBOAT4 (11741988_at) / Fold change /veh MBOAT4 (11741988_at) / RFU 11764193_at / Fold change /veh 11764193_at / RFU TMEM53 (11763286_at) / Fold change /veh TMEM53 (11763286_at) / RFU MAGEB2 (11727129_at) / Fold change /veh MAGEB2 (11727129_at) / RFU TMEM200A (11744735_a_at) / Fold change /veh TMEM200A (11744735_a_at) / RFU CCDC152 (11751479_a_at) / Fold change /veh CCDC152 (11751479_a_at) / RFU FAM211A (11726209_a_at) / Fold change /veh FAM211A (11726209_a_at) / RFU RGS16 (11746705_a_at) / Fold change /veh RGS16 (11746705_a_at) / RFU VCAN (11755009_s_at) / Fold change /veh VCAN (11755009_s_at) / RFU RHOB (11743442_s_at) / Fold change /veh RHOB (11743442_s_at) / RFU RGS16 (11720943_a_at) / Fold change /veh RGS16 (11720943_a_at) / RFU RGS16 (11720944_at) / Fold change /veh RGS16 (11720944_at) / RFU, VPS4B / Fold change vs veh, VPS4B / RFU, CREB1 / Fold change vs veh, CREB1 / RFU, DNAJC13 / Fold change vs veh, DNAJC13 / RFU, GNAQ / Fold change vs veh, GNAQ / RFU, CDK5R1 / Fold change vs veh, CDK5R1 / RFU, ZRANB3 / Fold change vs veh, ZRANB3 / RFU, CUL4A / Fold change vs veh, CUL4A / RFU, CCNY / Fold change vs veh, CCNY / RFU, UFL1 / Fold change vs veh, UFL1 / RFU, COG3 / Fold change vs veh, COG3 / RFU, DIAPH2 / Fold change vs veh, DIAPH2 / RFU, SKA2 / Fold change vs veh, SKA2 / RFU, AFF3 / Fold change vs veh, AFF3 / RFU, LMF1 / Fold change vs veh, LMF1 / RFU, IPO11 / Fold change vs veh, IPO11 / RFU, DFFB / Fold change vs veh, DFFB / RFU, FOXP1 / Fold change vs veh, FOXP1 / RFU, CARD8 / Fold change vs veh, CARD8 / RFU, STRN3 / Fold change vs veh, STRN3 / RFU, ADK / Fold change vs veh, ADK / RFU, RASSF2 / Fold change vs veh, RASSF2 / RFU, WIPF1 / Fold change vs veh, WIPF1 / RFU, LARP1B / Fold change vs veh, LARP1B / RFU, RASA1 / Fold change vs veh, RASA1 / RFU, RB1 / Fold change vs veh, RB1 / RFU, PPFIA1 / Fold change vs veh, PPFIA1 / RFU, MAT2A / Fold change vs veh, MAT2A / RFU, CCT5 / Fold change vs veh, CCT5 / RFU, WDR92 / Fold change vs veh, WDR92 / RFU, CUX1 / Fold change vs veh, CUX1 / RFU, TTC7A / Fold change vs veh, TTC7A / RFU, TMEM135 / Fold change vs veh, TMEM135 / RFU, DEPTOR / Fold change vs veh, DEPTOR / RFU, CPM / Fold change vs veh, CPM / RFU, DNAJB6 / Fold change vs veh, DNAJB6 / RFU, CACNA2D3 / Fold change vs veh, CACNA2D3 / RFU, DTX4 / Fold change vs veh, DTX4 / RFU, TFCP2 / Fold change vs veh, TFCP2 / RFU, GMCL1 /// GMCL1P1 / Fold change vs veh, GMCL1 /// GMCL1P1 / RFU, AEBP2 / Fold change vs veh, AEBP2 / RFU, SNHG1 /// SNORD22 /// SNORD25 /// SNORD26 /// SNORD27 /// SNORD28 /// SNORD29 /// SNORD31 / Fold change vs veh, SNHG1 /// SNORD22 /// SNORD25 /// SNORD26 /// SNORD27 /// SNORD28 /// SNORD29 /// SNORD31 / Fold change (Aza/veh), C12orf56 (ProbeSet 11735607_a_at) / Fold change (ACY-1035/veh), C12orf56 (ProbeSet 11735607_a_at) / Fold change (Aza/veh), FGFR1OP (ProbeSet 11751329_s_at) / Fold change (ACY-1035/veh), FGFR1OP (ProbeSet 11751329_s_at) / Fold change (Aza/veh), VPS36 (ProbeSet 11739960_a_at) / Fold change (ACY-1035/veh), VPS36 (ProbeSet 11739960_a_at) / RFU SYPL1 (11715823_x_at) / Fold change /veh SYPL1 (11715823_x_at) / RFU IGFBP7 (11715501_s_at) / Fold change /veh IGFBP7 (11715501_s_at) / RFU REEP3 (11722064_at) / Fold change /veh REEP3 (11722064_at) / RFU IGLL1 (11728026_x_at) / Fold change /veh IGLL1 (11728026_x_at): dose or concentration left out as unconfirmed. The note with it: MV-4-11 cells, 48 hours.

As to `Nc1ccc(-c2cccs2)cc1NC(=O)c1ccc2c(c1)cc(C1CC1)n2CCN1CCOCC1` [ACY-1035], the “Fold change /veh TMEM53 (11763286_at)” value worked out at 0.91.
